From ChEMBL document CHEMBL4507296 (2021)

Tests used:
[1] = test system: Proto-oncogene tyrosine-protein kinase receptor Ret (Homo sapiens), P07949 [V804L]; conditions: Compound concentration 1000.0 nM
[2] = biological target: Serine/threonine-protein kinase 16 (Homo sapiens) (UniProt O75716); conditions: Compound concentration 1000.0 nM
[3] = biological target: Cyclin-dependent kinase 4 (Homo sapiens) (UniProt P11802); conditions: Compound concentration 1000.0 nM
[4] = biological target: Aurora kinase A (Homo sapiens) (UniProt O14965); conditions: Compound concentration 1000.0 nM
[5] = test system: Mast/stem cell growth factor receptor Kit (Homo sapiens), P10721 [V559D]; conditions: Compound concentration 1000.0 nM
[6] = biological target: Rho-associated protein kinase 2 (Homo sapiens) (UniProt O75116); conditions: Compound concentration 1000.0 nM
[7] = biological target: Homeodomain-interacting protein kinase 4 (Homo sapiens) (UniProt Q8NE63); conditions: Compound concentration 1000.0 nM
[8] = biological target: Activin receptor type-1B (Homo sapiens) (UniProt P36896); conditions: Compound concentration 1000.0 nM
[9] = test system: Tyrosine-protein kinase ABL1 (Homo sapiens), P00519 [F317L]; conditions: Compound concentration 1000.0 nM
[10] = test system: Receptor-type tyrosine-protein kinase FLT3 (Homo sapiens), P36888 [D835H]; conditions: Compound concentration 1000.0 nM
[11] = biological target: Serine/threonine-protein kinase RIO1 (Homo sapiens) (UniProt Q9BRS2); conditions: Compound concentration 1000.0 nM
[12] = biological target: D(3) dopamine receptor (Homo sapiens) (UniProt P35462); conditions: Compound concentration 10.0 uM
[13] = test system: Mast/stem cell growth factor receptor Kit (Homo sapiens), P10721 [V559D,T670I]; conditions: Compound concentration 1000.0 nM
[14] = biological target: Protein-tyrosine kinase 2-beta (Homo sapiens) (UniProt Q14289); conditions: Compound concentration 1000.0 nM
[15] = biological target: 3-phosphoinositide-dependent protein kinase 1 (Homo sapiens) (UniProt O15530); conditions: Compound concentration 1000.0 nM
[16] = biological target: Muscle, skeletal receptor tyrosine-protein kinase (Homo sapiens) (UniProt O15146); conditions: Compound concentration 1000.0 nM
[17] = biological target: Serine/threonine-protein kinase MARK1 (Homo sapiens) (UniProt Q9P0L2); conditions: Compound concentration 1000.0 nM
[18] = biological target: Dual specificity testis-specific protein kinase 1 (Homo sapiens) (UniProt Q15569); conditions: Compound concentration 1000.0 nM
[19] = biological target: Dual specificity mitogen-activated protein kinase kinase 2 (Homo sapiens) (UniProt P36507); conditions: Compound concentration 1000.0 nM
[20] = biological target: Epidermal growth factor receptor (Homo sapiens) (UniProt P00533); conditions: Compound concentration 1000.0 nM
[21] = biological target: Serine/threonine-protein kinase 32A (Homo sapiens) (UniProt Q8WU08); conditions: Compound concentration 1000.0 nM
[22] = biological target: Serine/threonine-protein kinase ULK2 (Homo sapiens) (UniProt Q8IYT8); conditions: Compound concentration 1000.0 nM
[23] = biological target: Inhibitor of nuclear factor kappa-B kinase subunit alpha (Homo sapiens) (UniProt O15111); conditions: Compound concentration 1000.0 nM
[24] = biological target: Serine/threonine-protein kinase DCLK3 (Homo sapiens) (UniProt Q9C098); conditions: Compound concentration 1000.0 nM
[25] = biological target: GABA-A receptor; anion channel (Rattus norvegicus) (UniProt O09028+P15431+P18506+P18508+P19969+P20236+P23574+P23576+P28471+P28473+P30191+P62813+P63079+P63138+Q91ZM7+Q9ES14); conditions: Compound concentration 10.0 uM
[26] = test system: Epidermal growth factor receptor (Homo sapiens), P00533 [T790M]; conditions: Compound concentration 1000.0 nM
[27] = biological target: NUAK family SNF1-like kinase 1 (Homo sapiens) (UniProt O60285); conditions: Compound concentration 1000.0 nM
[28] = test system: Phosphatidylinositol 4,5-bisphosphate 3-kinase catalytic subunit alpha isoform (Homo sapiens), P42336 [I800L]; conditions: Compound concentration 1000.0 nM
[29] = biological target: TGF-beta receptor type-1 (Homo sapiens) (UniProt P36897); conditions: Compound concentration 1000.0 nM
[30] = biological target: Cyclin-dependent kinase 3 (Homo sapiens) (UniProt Q00526); conditions: Compound concentration 1000.0 nM
[31] = biological target: Ephrin type-A receptor 2 (Homo sapiens) (UniProt P29317); conditions: Compound concentration 1000.0 nM
[32] = biological target: Phosphatidylinositol 4,5-bisphosphate 3-kinase catalytic subunit alpha isoform (Homo sapiens) (UniProt P42336); conditions: Compound concentration 1000.0 nM
[33] = biological target: T1, Alpha-2B adrenergic receptor (Homo sapiens) (UniProt P18089); conditions: Compound concentration 10.0 uM
T1 sequence (whole entry): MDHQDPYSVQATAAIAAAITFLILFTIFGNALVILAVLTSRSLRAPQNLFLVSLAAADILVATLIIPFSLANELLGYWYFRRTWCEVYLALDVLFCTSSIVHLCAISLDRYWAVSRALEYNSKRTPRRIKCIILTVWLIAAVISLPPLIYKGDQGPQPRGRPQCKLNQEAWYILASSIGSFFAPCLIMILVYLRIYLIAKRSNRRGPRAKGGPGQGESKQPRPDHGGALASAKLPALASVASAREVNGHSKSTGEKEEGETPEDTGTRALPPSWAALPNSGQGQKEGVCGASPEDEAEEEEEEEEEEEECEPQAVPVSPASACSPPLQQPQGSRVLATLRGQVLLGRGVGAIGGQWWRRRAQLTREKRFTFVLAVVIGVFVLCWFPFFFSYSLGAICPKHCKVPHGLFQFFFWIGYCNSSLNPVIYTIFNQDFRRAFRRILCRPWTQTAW

[34] = biological target: Ephrin type-B receptor 6 (Homo sapiens) (UniProt O15197); conditions: Compound concentration 1000.0 nM
[35] = biological target: D(1B) dopamine receptor (Homo sapiens) (UniProt P21918); conditions: Compound concentration 10.0 uM
[36] = test system: Tyrosine-protein kinase ABL1 (Homo sapiens), P00519 [F317I]; conditions: Compound concentration 1000.0 nM
[37] = biological target: Receptor-type tyrosine-protein kinase FLT3 (Homo sapiens) (UniProt P36888); conditions: Compound concentration 1000.0 nM
[38] = biological target: Insulin receptor (Homo sapiens) (UniProt P06213); conditions: Compound concentration 1000.0 nM
Insulin receptor (Homo sapiens), sequence (P06213 28-758 limits assumed): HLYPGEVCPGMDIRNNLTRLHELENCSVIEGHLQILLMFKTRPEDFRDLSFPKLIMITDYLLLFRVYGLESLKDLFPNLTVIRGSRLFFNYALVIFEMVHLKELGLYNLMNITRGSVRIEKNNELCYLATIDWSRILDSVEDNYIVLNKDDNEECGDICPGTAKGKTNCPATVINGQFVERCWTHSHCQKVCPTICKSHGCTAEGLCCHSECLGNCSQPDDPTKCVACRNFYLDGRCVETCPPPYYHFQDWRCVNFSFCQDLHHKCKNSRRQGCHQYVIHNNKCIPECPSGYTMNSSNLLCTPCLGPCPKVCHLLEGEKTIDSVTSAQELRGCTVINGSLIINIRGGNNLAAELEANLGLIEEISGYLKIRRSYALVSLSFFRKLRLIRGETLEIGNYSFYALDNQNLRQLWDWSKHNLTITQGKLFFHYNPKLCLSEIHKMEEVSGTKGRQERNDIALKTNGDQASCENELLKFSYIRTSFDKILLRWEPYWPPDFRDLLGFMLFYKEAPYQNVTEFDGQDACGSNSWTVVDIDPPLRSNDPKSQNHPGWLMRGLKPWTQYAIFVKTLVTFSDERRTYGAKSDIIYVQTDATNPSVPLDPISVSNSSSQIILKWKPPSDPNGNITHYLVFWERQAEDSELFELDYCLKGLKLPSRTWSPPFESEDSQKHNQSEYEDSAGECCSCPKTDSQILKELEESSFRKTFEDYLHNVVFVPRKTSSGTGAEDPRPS
Insulin receptor (Homo sapiens), sequence (P06213 763-1382 limits assumed): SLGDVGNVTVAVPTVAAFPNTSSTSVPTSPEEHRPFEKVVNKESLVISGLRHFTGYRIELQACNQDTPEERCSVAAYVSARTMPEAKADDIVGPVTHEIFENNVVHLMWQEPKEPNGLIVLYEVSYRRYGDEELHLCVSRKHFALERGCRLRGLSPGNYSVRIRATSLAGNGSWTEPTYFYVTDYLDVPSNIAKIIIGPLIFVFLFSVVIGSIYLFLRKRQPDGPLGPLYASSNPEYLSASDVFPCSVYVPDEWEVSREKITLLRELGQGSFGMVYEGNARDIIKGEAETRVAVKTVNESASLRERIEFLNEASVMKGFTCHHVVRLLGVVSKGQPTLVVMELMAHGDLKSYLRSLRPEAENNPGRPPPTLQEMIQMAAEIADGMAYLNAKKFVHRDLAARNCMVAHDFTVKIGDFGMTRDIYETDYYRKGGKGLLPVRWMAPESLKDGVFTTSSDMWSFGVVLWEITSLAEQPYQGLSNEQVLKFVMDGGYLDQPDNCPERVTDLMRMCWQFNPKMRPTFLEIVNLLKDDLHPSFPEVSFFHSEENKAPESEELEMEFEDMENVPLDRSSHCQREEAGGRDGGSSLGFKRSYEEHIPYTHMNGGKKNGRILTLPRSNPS

Inhibitor of nuclear factor kappa-B kinase subunit alpha (Homo sapiens), sequence (O15111 whole entry): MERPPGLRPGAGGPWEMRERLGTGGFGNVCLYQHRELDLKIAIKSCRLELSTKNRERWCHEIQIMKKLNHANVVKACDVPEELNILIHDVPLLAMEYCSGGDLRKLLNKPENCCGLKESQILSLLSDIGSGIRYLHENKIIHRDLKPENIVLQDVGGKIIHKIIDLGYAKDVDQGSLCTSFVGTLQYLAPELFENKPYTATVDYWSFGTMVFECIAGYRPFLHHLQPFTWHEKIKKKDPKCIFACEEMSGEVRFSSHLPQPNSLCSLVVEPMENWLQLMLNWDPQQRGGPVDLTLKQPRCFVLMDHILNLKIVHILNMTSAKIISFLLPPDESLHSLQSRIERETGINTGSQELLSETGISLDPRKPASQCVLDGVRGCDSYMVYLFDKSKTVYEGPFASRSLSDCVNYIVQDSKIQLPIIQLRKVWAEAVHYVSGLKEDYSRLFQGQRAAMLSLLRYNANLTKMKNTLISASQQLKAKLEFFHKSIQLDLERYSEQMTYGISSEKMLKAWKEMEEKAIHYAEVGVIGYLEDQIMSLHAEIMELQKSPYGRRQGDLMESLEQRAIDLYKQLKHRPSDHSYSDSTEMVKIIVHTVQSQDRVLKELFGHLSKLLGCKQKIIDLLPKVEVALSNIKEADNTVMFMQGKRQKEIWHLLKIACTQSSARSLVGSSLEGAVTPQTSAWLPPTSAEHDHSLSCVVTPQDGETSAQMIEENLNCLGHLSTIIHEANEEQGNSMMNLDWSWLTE
Proto-oncogene tyrosine-protein kinase receptor Ret (Homo sapiens), P07949 [V804L], sequence (P07949 whole entry V804L): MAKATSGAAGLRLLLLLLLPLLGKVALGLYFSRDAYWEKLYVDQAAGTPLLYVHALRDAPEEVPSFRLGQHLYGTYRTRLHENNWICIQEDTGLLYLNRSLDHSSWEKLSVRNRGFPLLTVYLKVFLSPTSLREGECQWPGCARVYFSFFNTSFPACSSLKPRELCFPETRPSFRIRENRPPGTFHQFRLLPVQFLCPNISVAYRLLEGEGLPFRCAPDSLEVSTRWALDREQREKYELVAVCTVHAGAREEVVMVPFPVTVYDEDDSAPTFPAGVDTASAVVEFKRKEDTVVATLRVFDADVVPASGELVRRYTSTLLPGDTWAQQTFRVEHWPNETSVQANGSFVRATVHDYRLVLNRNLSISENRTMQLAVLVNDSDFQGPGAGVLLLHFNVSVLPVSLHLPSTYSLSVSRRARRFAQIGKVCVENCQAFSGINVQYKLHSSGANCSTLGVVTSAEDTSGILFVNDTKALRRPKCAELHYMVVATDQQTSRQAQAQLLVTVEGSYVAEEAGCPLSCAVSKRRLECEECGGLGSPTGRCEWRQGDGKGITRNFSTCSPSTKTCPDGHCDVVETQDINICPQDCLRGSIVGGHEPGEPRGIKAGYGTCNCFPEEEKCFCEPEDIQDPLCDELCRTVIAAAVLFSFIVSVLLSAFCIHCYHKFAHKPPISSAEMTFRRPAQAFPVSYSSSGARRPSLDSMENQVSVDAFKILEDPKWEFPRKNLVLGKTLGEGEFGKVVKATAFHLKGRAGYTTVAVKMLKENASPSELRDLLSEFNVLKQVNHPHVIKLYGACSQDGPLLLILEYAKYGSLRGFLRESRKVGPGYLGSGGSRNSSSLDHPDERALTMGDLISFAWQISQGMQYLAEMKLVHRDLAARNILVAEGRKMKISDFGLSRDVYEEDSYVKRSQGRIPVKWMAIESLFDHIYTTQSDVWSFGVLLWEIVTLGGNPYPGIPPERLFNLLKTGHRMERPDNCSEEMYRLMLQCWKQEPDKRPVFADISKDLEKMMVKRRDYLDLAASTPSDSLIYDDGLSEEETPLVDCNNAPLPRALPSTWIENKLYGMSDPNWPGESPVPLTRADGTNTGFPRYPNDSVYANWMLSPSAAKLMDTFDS
Serine/threonine-protein kinase RIO1 (Homo sapiens), sequence (Q9BRS2 whole entry): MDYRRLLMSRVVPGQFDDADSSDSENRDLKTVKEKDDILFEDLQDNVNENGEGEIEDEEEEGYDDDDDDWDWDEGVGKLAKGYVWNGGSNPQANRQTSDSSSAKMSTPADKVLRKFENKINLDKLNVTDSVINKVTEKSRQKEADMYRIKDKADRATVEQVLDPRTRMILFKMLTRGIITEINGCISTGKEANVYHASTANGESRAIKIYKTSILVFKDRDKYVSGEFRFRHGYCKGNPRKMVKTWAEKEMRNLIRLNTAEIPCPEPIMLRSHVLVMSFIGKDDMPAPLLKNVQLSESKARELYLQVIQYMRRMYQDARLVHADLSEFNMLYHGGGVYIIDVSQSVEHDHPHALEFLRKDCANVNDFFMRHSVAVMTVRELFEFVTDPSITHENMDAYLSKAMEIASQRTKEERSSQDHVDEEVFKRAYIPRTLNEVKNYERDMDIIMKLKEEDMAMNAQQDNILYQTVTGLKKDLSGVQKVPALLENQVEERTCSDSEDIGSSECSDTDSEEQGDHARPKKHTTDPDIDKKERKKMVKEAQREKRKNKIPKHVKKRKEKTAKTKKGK
Mast/stem cell growth factor receptor Kit (Homo sapiens), P10721 [V559D], sequence (P10721 whole entry V559D): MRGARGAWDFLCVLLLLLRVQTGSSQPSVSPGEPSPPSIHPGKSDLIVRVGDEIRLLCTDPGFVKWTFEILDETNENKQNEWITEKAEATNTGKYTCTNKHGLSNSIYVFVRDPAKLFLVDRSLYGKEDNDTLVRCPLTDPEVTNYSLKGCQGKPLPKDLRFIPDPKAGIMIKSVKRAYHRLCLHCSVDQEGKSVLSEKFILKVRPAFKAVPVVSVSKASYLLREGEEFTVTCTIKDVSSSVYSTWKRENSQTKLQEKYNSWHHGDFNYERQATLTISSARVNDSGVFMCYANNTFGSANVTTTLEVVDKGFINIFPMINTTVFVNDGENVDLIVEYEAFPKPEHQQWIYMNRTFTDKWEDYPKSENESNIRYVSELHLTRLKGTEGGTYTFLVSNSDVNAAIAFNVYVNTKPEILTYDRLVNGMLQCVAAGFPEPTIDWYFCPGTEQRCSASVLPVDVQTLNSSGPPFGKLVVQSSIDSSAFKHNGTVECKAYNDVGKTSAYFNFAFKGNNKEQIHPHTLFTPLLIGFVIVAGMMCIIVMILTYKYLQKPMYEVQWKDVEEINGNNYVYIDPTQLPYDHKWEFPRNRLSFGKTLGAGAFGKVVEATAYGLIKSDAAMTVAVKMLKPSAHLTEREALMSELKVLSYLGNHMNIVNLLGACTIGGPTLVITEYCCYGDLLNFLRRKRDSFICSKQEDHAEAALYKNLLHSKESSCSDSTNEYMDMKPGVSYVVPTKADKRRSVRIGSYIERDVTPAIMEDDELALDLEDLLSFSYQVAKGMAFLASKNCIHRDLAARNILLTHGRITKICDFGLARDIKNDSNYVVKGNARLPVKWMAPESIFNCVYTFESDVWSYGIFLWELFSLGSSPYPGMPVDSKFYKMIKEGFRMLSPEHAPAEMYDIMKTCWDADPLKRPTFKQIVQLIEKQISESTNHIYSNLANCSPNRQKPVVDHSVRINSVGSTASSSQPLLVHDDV
Cyclin-dependent kinase 3 (Homo sapiens), sequence (Q00526 whole entry, looked up): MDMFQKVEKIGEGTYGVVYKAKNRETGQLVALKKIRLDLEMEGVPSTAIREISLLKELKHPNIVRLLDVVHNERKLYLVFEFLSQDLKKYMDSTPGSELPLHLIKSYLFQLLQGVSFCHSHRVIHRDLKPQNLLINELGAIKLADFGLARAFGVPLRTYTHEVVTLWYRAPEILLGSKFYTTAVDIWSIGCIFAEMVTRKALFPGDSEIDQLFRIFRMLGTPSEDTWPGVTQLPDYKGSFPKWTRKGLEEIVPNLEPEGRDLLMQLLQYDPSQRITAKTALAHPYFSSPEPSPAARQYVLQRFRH

C[C@H](c1ccc(F)cc1)N(Cc1cccc(C(=O)O)c1)C(=O)c1cnc2ccccc2c1 [PF-05105679]
inactive: residual activity [1] 85% | residual activity [2] 100% | residual activity [3] 100% | residual activity [4] 100% | residual activity [5] 92% | residual activity [6] 100% | residual activity [7] 93% | residual activity [8] 100% | residual activity [9] 99% | residual activity [10] 84% | residual activity [11] 100% | inhibition [12] -8.16% | residual activity [13] 98% | residual activity [14] 100% | residual activity [15] 100% | residual activity [16] 76% | residual activity [17] 100% | residual activity [18] 100% | residual activity [19] 100% | residual activity [20] 100% | residual activity [21] 100% | residual activity [22] 81% | residual activity [23] 93% | residual activity [24] 100% | inhibition [25] 28.4% | residual activity [26] 100% | residual activity [27] 100% | residual activity [28] 61% | residual activity [29] 96% | residual activity [30] 98% | residual activity [31] 100% | residual activity [32] 100% | inhibition [33] 20.2% | residual activity [34] 88% | inhibition [35] -1.69% | residual activity [36] 72% | residual activity [37] 100% | residual activity [38] 100%
